Source: patent US20120041025A1, “Dihydrolipoic Acid Derivatives Comprising Nitric Oxide and Therapeutic Uses Thereof” (priority 2009, published 2012)

Assays:
[1] = tested on: low-density lipoprotein (LDL); test: Inhibition of low-density lipoprotein oxidation, spectral analysis at O.D. 234; assay type: biochemical; settings: 10, 25, and 50 μM NO-DHLA in ethyl alcohol
Experimental: To determine whether the dinitroso-derivative of dihydrolipoic acid (6,8-bis[(oxidoazanylidyne)-λ^4-sulfanyl]octanoic acid or “NO-DHLA”) was capable of inhibiting low-density lipoprotein (LDL) oxidation, LDLs were incubated in ethyl alcohol alone or with NO-DHLA. A spectral analysis of these solutions was then performed at an O.D. of 234, as absorbance at that portion of the spectrum is indicative of the formation of the oxidized fatty acid component of LDL.

[2] = Storage stability of DHLA-NO solution (color / absorbance at OD 545 nm); assay type: physicochemical
Experimental: Furthermore, it was also observed that other reduced thiols (cysteine, glutathione), which were used as controls, generated similar S-nitroso thiol compounds. NO generated from the decomposition of other NO donors also generated nitroso-DHLA when incubated with DHLA. […] However, DHLA-NO stored at −80° C. retained its color up for up to 3 months without any loss of absorbance at OD 545 nm.

[3] = tested on: bovine serum albumin (BSA); test: Nitration of bovine serum albumin by NO-DHLA, western blot with anti-nitrotyrosine antibodies (NO donation); assay type: biochemical; settings: BSA 25 mg/ml incubated with NO-DHLA (6 to 15 μl) for 1 hr; untreated albumin had no detectable nitrotyrosine
Experimental: To determine the ability of the dinitroso-derivative of DHLA (6,8-bis[(oxidoazanylidyne)-λ^4-sulfanyl]octanoic acid or “NO-DHLA”) to donate nitric oxide (NO), bovine serum albumin (BSA) was first prepared in water at 25 mg/ml. In 100 μl of alcohol, increasing concentrations of BSA (15 to 30 μl) were then mixed with increasing concentrations of the NO-DHLA (0 to 15 μl) and incubated for 1 hr. Table 1 represents the incubation:
At the end of the incubation, samples were the separated by SDS-PAGE electrophoresis with along with markers of molecular weight. At the end of the electrophoresis, the blot was subsequently transferred on to a nitrocellulose membrane and western blotting was performed using anti-nitrotyrosine antibodies at a 1:1000 dilution (Oxford Biomedical Research, Rochester Hills, Mich.). Non-specific sites on the nitrocellulose were blocked with milk protein for 16 h at 4° C. and then overlaid with a polyclonal anti-nitrotyrosine rabbit antibody. Peroxidase conjugated anti-rabbit IgG was used as secondary antibody. […]

O=NSCCC(CCCCC(=O)O)SN=O (centres unmarked) [NO-DHLA, 6,8-bis[(oxidoazanylidyne)-λ^4-sulfanyl]octanoic acid]
oxidation of LDL (O.D. at 234 over time) [1]: effectively prevented or significantly reduced the oxidation of LDL | stability of solution stored at room temperature ([2]; solution stored at room temperature, color): decomposed, losing color within hours | stability without any loss of absorbance at OD 545 nm ([2]; stored at −20° C.): stable at −20 °C for at least one month | time color retained without any loss of absorbance at OD 545 nm ([2]; stored at −80° C.): up to 3 months | nitrotyrosine formation on BSA (reactivity with anti-nitrotyrosine antibody) [3]: intense reactivity with the antibody
